Test [1] deals with Panc02 and SKOV3 cells. The test can be described thus: Assay for inhibition of ATP production (FIGS. 8A and 8B). In kind it is cell-based. As to conditions: 48 hours treatment, 1.5 to 10000 nM. As to the method:
The assay determines the amount of ATP in cells in culture.
Cells were plated at 4,000 per well in 96-well plate in a medium of high glucose DMEM (PAN) supplemented with 10% FBS (PAN), 2 mM glutamine-alanine (PAN), 2 mM pyruvate (Sigma) and 10 mL/L penicillin-streptomycin and grown at 37° C. in 0.5% O2, 5% CO2 and 75% humidity. For hypoxia, cells were grown and treated in the Whitley H35 Hypoxystation (Don Whitley Scientific) at 37° C. in 0.5% O2, 5% CO2 and 75% humidity. The next day, cells were induced with test compounds (FIG. 1: compounds of examples 3/16, 3/8, 10 at 10000, 3333, 1111, 370, 123, 41, 14, 5 and 1.5 nM; FIGS. 8A and 8B: compounds of example 3/19, 30 and 30/2 at 10000, 3333, 1111, 370, 123, 41, 14, 5 and 1.5 nM), as well as with vehicle (DMSO) only, for 48 hours. After this time, the medium was removed from the cells and intracellular ATP levels were determined using the Promega CellTiter-Glo 2.0 assay protocol (Promega, G9241). To estimate the effect of compounds on the ATP production, sample values were compared to the values of DMSO only. IC50 values were generated by plotting the luciferase counts against compound concentration.

In test [2] the target is p70-S6K (Thr389) (Homo sapiens (Human), UniProt P23443). Nature of the test: Western Blot analysis of p70-S6K phosphorylation. In kind it is cell-based. As to conditions: HeLa cells, 24 hours, 10, 30 and 100 nM, also with Bafilomycin A, normoxic condition, FIG. 5. How it is done:
Western Blot analysis was used to detect amounts of specific protein in differently treated cells. Proteins are separated by size, transferred onto a nitrocellulose membrane and incubated with protein specific antibodies. The density of the observed band is proportional to the amount of the specific protein inside the cell.
Cells were plated at 4×10^6 (for hypoxia) or 3×10^6 (for normoxia) cells per […] plate in medium of high glucose DMEM (PAN) supplemented with 10% FBS (PAN), 2 mM glutamine-alanine (PAN), 2 mM pyruvate (Sigma) and 10 ml/L penicillin-streptomycin (PAN), and grown at 37° C. in 0.5% O2, 5% CO2 and 75% humidity. For hypoxia, cells were grown and treated in the Whitley H35 Hypoxystation (Don Whitley Scientific) at 37° C. in 0.5% O2, 5% CO2 and 75% humidity. Next day, the cells were treated with test compounds (FIG. 4: compounds of example 3/8 and 10 at concentrations 0.1, 0.3 and 1 μM, Bafilomycin A at 20 nM; FIG. 5: compounds of example 3/16, 3/8 and 10 at concentrations 10, 30 and 100 nM, Bafilomycin A at 20 nM), as well as with vehicle (DMSO) only, for 24 h. […] Protein concentration of the sample was measured using the DC Protein Assay Kit (Biorad, 5000112), 22 μg of protein extract per well was loaded onto a precast SDS page gel (Biorad, 1704273). […] The chemiluminescence was measured using chemiluminescent substrate (#34580, Thermo Scientific).

Consider `O=C(Nc1ccc(F)c(NC(=O)c2cc3ccc(OCCCN4CCCC4)cc3s2)c1)c1ccc2c(c1)OCCO2` [3/8], for which, in test [1], the ATP production level result is “dose-dependent reduction”. Besides, in test [2], the “p70-S6K phosphorylation (Thr389)” value was “dose-dependent induction”.

Regarding `Cc1ccc(NC(=O)c2ccc3c(c2)OCCO3)cc1NC(=O)c1cc2cccnc2s1` [3/16], in test [1], the ATP production level result is recorded as “dose-dependent reduction”. In addition, the “p70-S6K phosphorylation (Thr389)” value in test [2] is “dose-dependent induction”.

The values are drawn from US20260028334A1, “N-(3-(BENZO[B]THIOPHENE-2-CARBOXAMIDO)-PHENYL)-2,3-DIHYDROBENZO[B][1,4]DIOXINE-6-CARBOXAMIDE DERIVATIVES AND RELATED COMPOUNDS AS LACTATE/ATP PRODUCTION INHIBITORS FOR THE TREATMENT OF CANCER” (WMT Aktiengesellschaft, priority 2022, published 2026).
